Data from PubChem BioAssay (NCI).
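All cell lines were grown in 96-well plates and treated with compound for 48 hours. Abbreviation: GI50, concentration required for 50% inhibition of growth. TGI is the concentration that stops growth completely.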

Key:
Assay in all cases: NCI-60 cell line screen, 48 h
[1] = tested on: LXFL 529 NSCLC
[2] = tested on: XF 498 CNS
[3] = tested on: M19-MEL melanoma
[4] = tested on: SNB-78 CNS
[5] = tested on: HOP-18 NSCLC

Structure (SMILES) | TGI [1] [µM] | TGI [2] [µM] | TGI [3] [µM] | TGI [4] [µM] | TGI [5] [µM] | GI50 [1] [µM] | GI50 [2] [µM] | GI50 [3] [µM] | GI50 [4] [µM] | GI50 [5] [µM]
COC(=O)C1=CC2OC13CC1CCC3(C2=O)C1(C)C (stereo not given) | 16.7 | 13.4 | 24.5 | 36.5 | 24 |  |  |  |  | 
CN(CCO)c1nc2c(c(=O)[nH]1)CNCC2 | > 100 | > 100 | > 100 | > 100 | > 100 |  |  |  |  | 
Cc1ccc(C2=NO[C@@H]3C(=O)N(c4ccc(Cc5ccc(N6C(=O)[C@H]7C(c8ccc(C)cc8)=NO[C@H]7C6=O)cc5)cc4)C(=O)[C@H]23)cc1 | > 100 | > 100 | > 100 | > 100 | > 100 |  |  |  |  | 
CCOC(=O)C1C(c2ccc([N+](=O)[O-])cc2)NC(c2ccc([N+](=O)[O-])cc2)C(C(=O)OC)S1(=O)=O (stereo not given) | > 100 | > 100 | > 100 | > 100 | > 100 |  |  |  |  | 
CCC[CH2][Sn]([CH2]CCC)([S]C1=NCCS1)[S]C1=NCCS1 | 0.169 | 0.678 | 1.45 | 0.946 | 2.33 | 0.0423 | 0.159 | 0.268 | 0.124 | 1.12
